The NIST ThermoML archive (doi:10.1016/j.jct.2008.07.009)
Numbers after ± are expanded uncertainties.

Assay: xn = mol fraction of the nth substance listed
Details: 101 kPa, Liquid, Vibrating tube method

CC(=O)N1CCOCC1 [4-acetylmorpholine] + CCc1ccccc1
mass density [kg/m3]
Details	293.15 K	303.15 K	313.15 K	323.15 K	333.15 K	343.15 K
x2 = 0.0456	1102.4 ± 6.1	1094.5 ± 6.1	1085.9 ± 6.1	1077.3 ± 6.1	1068.9 ± 6.1	1060.3 ± 6.1
x2 = 0.1256	1082.6 ± 6	1074.7 ± 6	1066.2 ± 6	1057.7 ± 6	1049.2 ± 6	1040.6 ± 6
x2 = 0.1853	1068 ± 6	1060 ± 6	1051.5 ± 6	1042.9 ± 6	1034.3 ± 6	1025.7 ± 6
x2 = 0.2457	1053.2 ± 6	1045.2 ± 6	1036.6 ± 6	1027.9 ± 6	1019.4 ± 6	1010.6 ± 6
x2 = 0.2984	1040.5 ± 6	1032.4 ± 6	1023.7 ± 6	1015 ± 6	1006.3 ± 6	997.5 ± 6
x2 = 0.3486	1028.3 ± 6	1020.1 ± 6	1011.4 ± 6	1002.6 ± 6	993.8 ± 6	985 ± 6
x2 = 0.3899	1018.3 ± 6	1010 ± 6	1001.2 ± 6	992.4 ± 6	983.6 ± 6	974.7 ± 6
x2 = 0.4452	1004.8 ± 6	996.5 ± 6	987.7 ± 6	978.9 ± 6	969.9 ± 6	960.9 ± 6
x2 = 0.4843	995.3 ± 6	986.9 ± 6	978 ± 6	969.2 ± 6	960.2 ± 6	951.2 ± 6
x2 = 0.5433	980.8 ± 6	972.3 ± 6	963.5 ± 6	954.6 ± 6	945.6 ± 6	936.6 ± 6
x2 = 0.5894	969.5 ± 6	961 ± 6	952.1 ± 6	943.2 ± 6	934.2 ± 6	925.2 ± 6
x2 = 0.6555	953.2 ± 6	944.7 ± 6	935.8 ± 6	926.9 ± 6	917.8 ± 6	908.8 ± 6
x2 = 0.6983	942.6 ± 6	934 ± 6	925.1 ± 6	916.2 ± 6	907.2 ± 6	898.3 ± 6
x2 = 0.7452	931 ± 6	922.4 ± 6	913.5 ± 6	904.6 ± 6	895.6 ± 6	886.6 ± 6
x2 = 0.7984	917.7 ± 6	909 ± 6	900.2 ± 6	891.2 ± 6	882.3 ± 6	873.4 ± 6
x2 = 0.8422	906.7 ± 6	898 ± 6	889.3 ± 6	880.4 ± 6	871.4 ± 6	862.4 ± 6
x2 = 0.9328	884.2 ± 6	875.5 ± 6	866.7 ± 6	857.8 ± 6	848.7 ± 6	839.7 ± 6
x2 = 0.9784	872.8 ± 6	864.1 ± 6	855.2 ± 6	846.2 ± 6	837.1 ± 6	828 ± 6

CC(=O)N1CCOCC1 [4-acetylmorpholine] + Cc1cc(C)cc(C)c1
mass density [kg/m3]
Details	293.15 K	303.15 K	313.15 K	323.15 K	333.15 K	343.15 K
x2 = 0.0654	1094.6 ± 6.1	1086.8 ± 6.1	1077.7 ± 6.1	1069.3 ± 6.1	1060.8 ± 6.1	1052.2 ± 6
x2 = 0.1128	1081.2 ± 6	1073.4 ± 6	1063.8 ± 6	1055.4 ± 6	1046.9 ± 6	1038.5 ± 6
x2 = 0.1763	1063.5 ± 6	1055.7 ± 6	1045.7 ± 6	1037.3 ± 6	1028.9 ± 6	1020.4 ± 6
x2 = 0.2254	1050.2 ± 6	1042.3 ± 6	1032 ± 6	1023.5 ± 6	1015.1 ± 6	1006.7 ± 6
x2 = 0.2845	1034.5 ± 6	1026.5 ± 6	1015.8 ± 6	1007.4 ± 6	999 ± 6	990.6 ± 6
x2 = 0.3241	1024.2 ± 6	1016.2 ± 6	1005.2 ± 6	996.8 ± 6	988.4 ± 6	980 ± 6
x2 = 0.3837	1008.9 ± 6	1000.9 ± 6	989.5 ± 6	981 ± 6	972.7 ± 6	964.3 ± 6
x2 = 0.4266	998.1 ± 6	990.1 ± 6	978.3 ± 6	969.9 ± 6	961.6 ± 6	953.2 ± 6
x2 = 0.4978	980.4 ± 6	972.3 ± 6	960.2 ± 6	951.9 ± 6	943.5 ± 6	935.2 ± 6
x2 = 0.5436	969.2 ± 6	961.1 ± 6	948.8 ± 6	940.4 ± 6	932.1 ± 6	923.8 ± 6
x2 = 0.6116	952.8 ± 6	944.8 ± 6	932.1 ± 6	923.9 ± 6	915.6 ± 6	907.3 ± 6
x2 = 0.6984	932.5 ± 6	924.4 ± 6	911.4 ± 6	903.1 ± 6	894.9 ± 6	886.8 ± 6
x2 = 0.7452	921.6 ± 6	913.6 ± 6	900.4 ± 6	892.2 ± 6	884 ± 6	875.9 ± 6
x2 = 0.7944	910.4 ± 6	902.3 ± 6	888.9 ± 6	880.8 ± 6	872.7 ± 6	864.6 ± 6
x2 = 0.8541	897 ± 6	889 ± 6	875.4 ± 6	867.2 ± 6	859.1 ± 6	851 ± 6
x2 = 0.8932	888.3 ± 6	880.2 ± 6	866.5 ± 6	858.4 ± 6	850.3 ± 6	842.2 ± 6
x2 = 0.9423	877.5 ± 6	869.5 ± 6	855.6 ± 6	847.5 ± 6	839.4 ± 6	831.3 ± 6
x2 = 0.9833	868.7 ± 6	860.6 ± 6	846.5 ± 6	838.5 ± 6	830.4 ± 6	822.3 ± 6
